In EP0726760B1, “SELF-EMULSIBLE FORMULATION FORMING AN OIL-IN-WATER EMULSION” (YISSUM RESEARCH DEVELOPMENT COMPANY OF THE HEBREW …, priority 1993, dated 1995) one finds survival data, which are given here for one molecule.

Read-outs that look alike come from different tables or passages of the source.

The data set in a line: Acute toxicity after intraperitoneal injection, 30 days. Details: species or system souris BALB/c. To be noted: mouse, in vivo, ip, printed 1:10 (0.5), i.p., read-out: % de survivants après 30 jours. The protocol: La toxicité aiguë des formulations décrites dans les exemples II - IV, a été examinée sur des souris BALB/c pendant 30 jours. 0.5 ml de chacun des SEOF dilué au 10ème (plus que 300 fois constitue un surdosage) et au 100ème (plus que 30 fois constitue un surdosage) ont été injectés intrapéritonalement au groupe de 4-6 souris. L'état de l'animal a été surveillé pendant plusieurs heures après le processus et ensuite chaque jour, pandant un mois.

Turning to `OCc1ccccc1` [BA, alcool benzylique], the survival at 720 h runs as follows: (BA 1.5 % in water for injection) 100%; (BA 3 % in water for injection) 15%.
